Read-outs that look alike come from different tables or passages of the source. Each block holds one molecule with its values, some of them ahead of it.
Experiments:
[1] = Reduction potential by cyclic voltammetry; format: physicochemical; parameters: E1/2red (reduction potential, footnote d): reference not given here; conditions: Bu4NBF4/CH3CN electrolyte, ±10 mV; for Epred (reduction potential): versus SCE; for E1/2red (reduction potential, footnote d): half-wave potential, footnote d prints [28]
[2] = test system: OVCAR3 cells; assay: MTT cytotoxicity, OVCAR3 ovarian cancer cells; conditions: for IC50: read-out: IC50 OVCAR3; for SI = selectivity index = IC50(HDF)/IC50(OVCAR3): HDF versus OVCAR3, 24 h
[3] = test system: V79 fibroblasts; assay: MTT cytotoxicity, V79 normal fibroblasts; conditions: read-out: IC50 V79, 24 h incubation
[4] = test system: HDF fibroblasts; assay: MTT cytotoxicity, HDF normal fibroblasts; conditions: read-out: IC50 HDF, 24 h incubation
[5] = test system: A2780 cells; assay: MTT cytotoxicity, A2780 ovarian cancer cells; conditions: read-out: IC50 A2780, 24 h incubation
[6] = test system: OVCAR3 cells; assay: Lipid peroxidation (MDA, TBARS) assay; format: cell-based, human; conditions: OVCAR3 cells treated 6 h; 1 at 100 μM, 5 at 50 μM, 9 at 20 μM; mean ± SD
Protocol: Measurement of MDA relies on the detection of thiobarbituric acid (TBA)-reactive compounds generated from the decomposition of lipid peroxidation products. This reaction, which takes place under acidic conditions at 95 °C, results in the formation of an MDA–TBA adduct that can be quantified by its absorbance at 532 nm. […] Additionally, the MDA levels induced by the complexes correlated with the levels of ROS, pointing the involvement of ROS production in the mechanism of action of complexes under study and, consequently, the peroxidation of the membrane lipids, as supported by the correlation between the production of ROS and the levels of lipid peroxides, particularly for complexes 5 and 9.
The malondialdehyde (MDA) content in lipid extracts of OVCAR3 cells was measured using a colorimetric kit (BioVision, Milpitas, CA, USA), a method that relies on the reaction with thiobarbituric acid (TBARS assay). Briefly, OVCAR3 cells (5 × 10^5 cells/2 mL medium) were seeded in six-well plates and left to adhere for 24 h. […] The resulting cell pellet was treated following the kit recommended protocol. […] Then, 200 μL aliquots were then taken and transferred to a 96-well plate for MDA quantification at 532 nm. […]

[7] = test system: ΦX174 supercoiled DNA; assay: Complex-DNA interaction, agarose gel electrophoretic mobility; format: binding; conditions: 0.5-15 µM complex, 24 h at 37 °C
Protocol: Therefore, we focused our studies mostly on the silver (5 and 7) and gold complexes (8 and 9) having the monocamphor ligands ^1A and ^2A, respectively. Complex 1 was also included for comparison. We evaluated the complexes’ ability to interact with DNA, by visualizing in vitro conformational changes in ΦX174 supercoiled DNA using agarose gel electrophoresis assays.
The DNA binding activity of the metal complexes was assessed through their ability to alter the electrophoretic mobilities of the covalently closed circular (ccc) and open circular (oc) forms of ΦX174 supercoiled DNA as previously described. Briefly, a mixture containing 200 ng of ϕX174 DNA (Promega, Madison, WI, USA) and different concentrations of the metal complexes was prepared. After incubation for 24 h at 37 °C in the dark, the samples were run in a 0.8% agarose gel in TAE buffer for 3 h at 90 V. The gel obtained was then stained using a 3× GelRed® (Biotium, Fremont, CA, USA) solution in H2O and imaged in an AlphaImagerEP (Alpha Innotech, San Leandro, CA, USA).

[8] = test system: OVCAR3 cells; assay: Intracellular ROS detection by H2DCF-DA; format: cell-based, human; conditions: 1-4 at 10-100 µM, 5-9 at 0.1-50 µM, 1 h
Protocol: The molecular probe dichlorodihydrofluorescein diacetate (H2DCF-DA) was used to assess the levels of ROS, e.g., hydrogen peroxide, hydroxyl radicals, and peroxynitrite, generated in response to the effect of the complexes. This compound suffers oxidation and produces a fluorescent compound (DCF) in the presence of ROS [31]. The induction of intracellular ROS by the compounds (metal precursors and copper, silver, and gold complexes) was analyzed at λexc. = 492 nm 517 nm emission using a Varioskan LUX scanning multimode reader (Thermo Fisher Scientific).
Intracellular ROS levels, mainly H2O2, were measured using dihydro-2′7′dichlorofluorescein diacetate (H2DCF-DA). This cell-permeable molecular probe is de-esterified within the cell and turns to highly fluorescent 2′,7′-dichlorofluorescin (DCF) upon oxidation with ROS. For the assays, OVCAR3 cells (2 × 10^4 cells /well) were seeded in 96-well plates and left to adhere overnight. The medium was then replaced with a solution of 10 μM H2DCF-DA in colorless DMEM (FluoroBrite™ DMEM, Gibco®, Waltham, MA, USA) and cells were incubated at 37 °C for 30 min. […] DCF fluorescence was measured using a Varioskan Lux multimode microplate reader (ThermoFisher Scientific, Waltham, MA, USA) at 492 nm excitation and 517 nm emission. Results of fluorescence were expressed as the fold change in fluorescence levels compared with controls.

[9] = test system: OVCAR3 cells; assay: Superoxide generation (NBT assay); format: cell-based, human; conditions: 1 at 50 and 100 µM, 5 at 20 and 50 µM, 9 at 10 and 20 µM
Protocol: The ROS species superoxide (O2^•−) can be detected with NBT, a cell-permeant dye that can cross the cell membrane and be reduced by intracellular free radicals (superoxide anions) to form formazan particles, which can be detected as blue precipitates in the cells.
The nitro blue tetrazolium (NBT) assay was carried out adapting a previously described method. This assay was used to determine the ability of cells to produce superoxide anion upon treatment with the compounds. During the treatment, NBT is reduced by superoxide anion, resulting in dark-blue formazan particles. […] Then, the medium was discarded, and the blue formazan particles were dissolved in 200 μL of 90% DMSO (90% DMSO:10% NaOH 0.1 N with 0.1% SDS). The resulting NBT formazan was measured at 560 nm using a plate spectrophotometer.

[10] = test system: caspase-3/7 in OVCAR3 cells; assay: Caspase-3/7 activation (Caspase-Glo 3/7 assay); format: cell-based, human; conditions: OVCAR3, 24 h, concentrations below IC50
Protocol: Caspases are a family of cysteine proteases playing central roles in the regulation of cellular processes such as programmed cell death. Among them, caspase-3 and -7 are considered executioners of the apoptosis pathways. We investigated the possible activation of apoptotic events in OVCAR3 cells treated by camphorimine complexes 1, 5, and 9.
The activities of caspase-3 and -7 were assessed using the Caspase-Glo® 3/7 assay (Promega, Madison, WI, USA). The assay kit provides a proluminescent caspase-3/7 substrate (DEVD-aminoluciferin) and luciferase in a reagent optimized for caspase-3/7 activity, luciferase activity, and cell lysis. In the presence of caspase 3/7, this substrate is cleaved, and aminoluciferin is released and consumed by luciferase, which generates a luminescent signal proportional to the caspase activity present in the cells. The assay was carried out in a 96-well plate format with the OVCAR3 cells treated with complexes 1, 5, and 9 for 24 h at concentrations below their IC50 according to a previously described method. […] Results (mean ± SD) were expressed as relative luminescent units (RLU).

[11] = Complex stability in cellular medium by UV/Vis spectroscopy; format: physicochemical; conditions: DMSO, DMEM with 1% DMSO, DMEM with 1% DMSO + 10% FBS; 48 h
Protocol: The stability in cellular medium of the complexes was evaluated for 48 h, using UV/Vis spectroscopy. The absorption spectrum was recorded for each complex dissolved in (a) 100% DMSO, (b) colorless DMEM with 1% DMSO, and (c) colorless DMEM with 1% DMSO + 10% FBS [30]. […] As low concentrations were used in the biological studies, we expect that both the stability and the solubility were not impaired.

[12] = test system: OVCAR3 cells; assay: Metal distribution in single cells by nuclear microscopy (PIXE); format: cell-based, human; conditions: 1 at 45 μM 24 h, 9 at 30 μM 3 h
Protocol: The distribution of copper and gold in treated cells was inspected by nuclear microscopy, making use of the PIXE technique to map and assess elemental contents in single cells. The nuclear microscopy techniques offer several advantages, regarding relatively high spatial resolution and sensitivity for a wide range of elements with physiological roles and those with pharmaceutical interest, in whole cells, while preserving most of their in vivo conditions.
OVCAR3 cells (ca. 1 × 10^6) were prepared for nuclear microscopy experiments by seeding the cells on a 100 nm thick silicon nitride membrane (Silson Ltd., Southam, UK), contained in six-well plates, and incubated overnight as described previously. Cells were incubated with complexes 1 and 9 at concentrations corresponding to the IC50 (45 μM for 24 h and 30 μM for 3 h, respectively). After incubation, the cells were analyzed at the nuclear microscopy facility of the C2TN/IST with a 2.0 MeV proton beam focused down to 3 × 4 µm^2 dimensions. Images of the micro-distributions of Cu and Au in OVCAR3 cells, as well as minor and trace physiological elements (e.g., P, S, K, and Fe), were obtained using the PIXE multielemental technique. Images of whole OVCAR3 cells were taken with 30 × 30 µm^2 scan sizes. Acquisition of data imaging and spectral analysis was performed using OMDAQ 2007 (Oxford Microbeams Ltd., Oxford, UK).

[13] = test system: ΦX174 supercoiled DNA; parameters: method as in PMID 31671298; conditions: previously shown; cited from earlier work

Molecule: [{CuCl}3{(OC10H14N)2,μ-C6H4-p)}] [Complex 3]
E1/2red (reduction potential, footnote d) [1]: −0.46 ^d Volt
IC50 [3]: 44.9 ± 10 µM
IC50 [4]: 48.3 ± 27 µM
IC50 [5]: 43.1 ± 9.1 µM
SI = selectivity index = IC50(HDF)/IC50(OVCAR3) [2]: 1.3
IC50 ([2]; MTT, 24 h incubation): 37.5 ± 7.7 µM

Molecule: O=[N+]([O-])[O-].[Ag+] [Ag(NO3), silver nitrate, reference compound]
Epred (reduction potential) [1]: 0.18 Volt
IC50 [2]: 2.66 ± 1 µM

Molecule: [Cl][Cu] [CuCl, reference compound]
Epred (reduction potential) [1]: −0.46 Volt
IC50 ([2]; MTT, 24 h incubation): > 100 µM

Molecule: [{CuCl}2{OC10H14N(C6H4NH2)}] [Complex 1]
Epred (reduction potential) [1]: −0.49 Volt
MDA (lipid peroxide content) [6]: 290 ± 15 pmoles/10^6 Cells
interaction with DNA (change of electrophoretic mobility) [7]: none of them interacted significantly with DNA
production of ROS (H2DCF-DA, relative to untreated cells) [8]: followed a similar trend
superoxide ROS levels (NBT reduction) [9]: increased the ROS levels in a dose-dependent manner
caspase-3/7 activation [10]: low caspase activation
stability in cellular medium (UV/Vis spectra) [11]: slightly lower
cellular distribution of the metal [12]: uncharacteristic map of copper distribution
IC50 [3]: 34.5 ± 9.7 µM
IC50 [4]: 116 ± 27 µM
IC50 [5]: 45.6 ± 11 µM
SI = selectivity index = IC50(HDF)/IC50(OVCAR3) [2]: 1.6
IC50 ([2]; MTT, 24 h incubation): 72.4 ± 9.1 µM

Molecule: N.N.[Cl][Pt][Cl] [cisplatin, reference compound]
interaction with DNA (change of electrophoretic mobility) [13]: bind to DNA and induce extensive electrophoretic mobility changes in DNA
IC50 [5]: 21 ± 5 µM
IC50 ([2]; MTT, 24 h incubation): 13 ± 4.7 µM

The next lines start with results.

Epred (reduction potential) [1]: −0.043 Volt
Molecule: CC(=O)[O-].[Ag+] [Ag(CH3COO), silver acetate, reference compound]
IC50 ([2]; MTT, 24 h incubation): 3.38 ± 2 µM

E1/2red (reduction potential, footnote d) [1]: 0.58 ^d Volt
Molecule: [Cl][Cu][Cl] [CuCl2, reference compound]
IC50 ([2]; MTT, 24 h incubation): > 100 µM

E1/2red (reduction potential, footnote d) [1]: 0.48 ^d Volt
Molecule: [CuCl2((OC10H14N)2C6H4-p)] [Complex 2]
IC50 [3]: > 100 µM
IC50 [4]: > 100 µM
IC50 [5]: 49.5 ± 14 µM
SI = selectivity index = IC50(HDF)/IC50(OVCAR3) [2]: >3
IC50 ([2]; MTT, 24 h incubation): 37.6 ± 8.5 µM

E1/2red (reduction potential, footnote d) [1]: 0.47 ^d Volt
Molecule: [CuCl2(OC10H14NC6H5)]·HCl·½H2O [Complex 4]
IC50 [3]: > 100 µM
IC50 [4]: > 100 µM
IC50 [5]: > 100 µM
SI = selectivity index = IC50(HDF)/IC50(OVCAR3) [2]: >1
IC50 ([2]; MTT, 24 h incubation): 115 ± 25 µM

Source: PMC9405135, “Tuning the Biological Activity of Camphorimine Complexes through Metal Selection” (Antibiotics, 2022)
